Data taken from patent publication US9375484B2, “Taxane silicate prodrugs and nanoparticles” (REGENTS OF THE UNIVERSITY OF MINNESOTA, priority 2011, dated 2016).
Where two headings read alike, the source gives them in different places. Marks after values point to notes of the source that are not given here.

What was measured:
[1] = PTX silicate hydrolysis rates by 1H NMR; type: physicochemical; settings: for krel at C2′ (hydrolysis rate relative to the slowest, 1d) / krel at C7 (hydrolysis rate relative to the slowest, 1d): d6-acetone:D2O:TFA 90:9:1, room temperature; for krel at C2′ (hydrolysis rate relative to the slowest, 1d): 1d = 1.0, ± SD of three trials; for krel at C7 (hydrolysis rate relative to the slowest, 1d): for 2a/2b rate of in situ generated 3a/3b to PTX
Experimental: A known quantity of a PTX prodrug was dissolved in 900 μL of d6-acetone. To this homogenous solution, 100 μL of a 9:1 solution of D2O: trifluoroacetic acid (TFA) was added, and the solution was vigorously mixed. The ^1H NMR spectra was taken (16 transients) on a 500 MHz Varian instrument at multiple time points over the course of more than three half-lives. The study was conducted at room temperature (rt=22.5° C.±1.0° C.) Upon completion of the study, the 2′ and/or 7 methine resonances were integrated in a baseline-adjusted NMR spectrum using MestRec software. The relative integrations were used to determine the extent of hydrolysis. The data from three replications was plotted on a semi-log scale to determine the kobs of the prodrug that were then converted to the krel data as presented, defining the rate of the most slowly hydrolyzed prodrug (1d) as krel=1.0. Errors are defined as the standard deviation of the three trials.
^1H NMR spectroscopy was used to establish relative hydrolysis rates of compounds 1-3. The compounds were dissolved in a solution of d6-acetone, D2O, and trifluoroacetic acid (TFA) in a 90:9:1 ratio (v/v/v). Resonances of, e.g., H2′ in the reactant silicate vs. product carbinol were monitored.

[2] = test system: MDA-MB-231 cells; assay: MTT cytotoxicity of PTX silicate prodrugs; type: cell-based, human
Experimental: MDA-MB-231 and MDA-MB-231 Luciferase positive cells were maintained independently in MEM supplemented with 1% pen/strep and 10% FBS at 37° C. in a humidified incubator. MDA-MB-231 cells were obtained from the American Type Culture Collection. MDA-MB-231 Luc+ cells were obtained from CaliperLS (Hopkinton, Mass., USA). For MTT cytotoxicity studies, MDA-MB-231 cells were seeded at 8,000 cells/well in a 96 well plate in 100 μL MEM with 5% FBS. Paclitaxel, and paclitaxel silicate prodrug stock solutions of 10 mM were prepared in DMSO. Stock solutions were diluted to 2× concentration in MEM with 5% FBS, 100 μL volume, and pipetted into the 96 well plate. Concentration ranges were from 1-10,000 nM. After 48 hours, 30 μL of MTT working reagent was added to cells. Absorbance at 490 nm was monitored on a 96 well plate UV vis detector at 60 minutes. IC50 values were determined by nonlinear regression analysis of log concentration v. response data obtained from the MTT assay. The IC50 was interpolated from the resulting curves using Graphpad Prism v5.1 (Graphpad Software Inc. La Jolla Calif., USA).
Cytotoxicity of the PTX silicate prodrugs 1-3 was examined in the MDA-MB-231 human breast cancer cell line (Table 2).

[3] = test system: Tumor cells (4T1, PANC-1 or MDA-MB-231); assay: Cytotoxicity against tumor cells in vitro (MTS assay); type: cell-based; settings: 72 hours, FIG. 2
Experimental: Tumor cells (4T1, PANC-1 or MDA-MB-231) were seeded in 96-well plates and allowed to attach. Cells were then treated with paclitaxel (solubilized in growth medium using ethanol), silicate prodrug (2a, solubilized in growth medium using ethanol), silicate prodrug nanoparticles (a 58:42 wt % mixture of the bis-triethyl silicate paclitaxel prodrug 2a and a 5K-10K PEG-PLGA BCP dispersed in growth medium) or copolymer-only (blank, no drug) nanoparticles for 72 hours. Cell viability was then measured using a standard MTS assay kit (Promega).

[4] = test system: Orthotopic 4T1 tumors; assay: 4T1 tumor growth in mice; type: in vivo, BALB/c mice
Experimental: Orthotopic 4T1 tumors were grown by injecting ˜1×10^6 tumor cells in the mammary fat pad of BALB/c mice. When the tumors were about 100 mm^3 in volume, the animals were injected with a single dose of paclitaxel dissolved in 1:1 mix of ethanol and cremophor (same formulation as Taxol®), silicate prodrug (2a) dissolved in 1:1 mix of ethanol and cremophor (same formulation as Taxol®), or silicate prodrug nanoparticles dispersed in buffered saline. Untreated animals or those treated with just cremophor/ethanol vehicle were used as controls. […] This study clearly indicates the benefit of formulating paclitaxel in the form of silicate prodrug nanoparticle formulation.

SMILES | krel at C2′ (hydrolysis rate relative to the slowest, 1d) [1] | IC50 ([2]; Homo sapiens, MDA-MB-231, 48 h) [nM] | krel at C7 (hydrolysis rate relative to the slowest, 1d) [1] | also measured
CCO[Si](OCC)(OCC)O[C@@H](C(=O)O[C@H]1C[C@@]2(O)[C@@H](OC(=O)c3ccccc3)[C@@H]3[C@]4(OC(C)=O)CO[C@@H]4C[C@H](O)[C@@]3(C)C(=O)[C@H](OC(C)=O)C(=C1C)C2(C)C)[C@@H](NC(=O)c1ccccc1)c1ccccc1 [Compound 1a, 2′-O-(triethylorthosilyl)paclitaxel] | 2200 ± 600 | 23 | – | difference of krel values between the extremes 1a and 1d ([1]; 1a versus 1d): > 2000 ×; krel of 1a relative to 1b ([1]; hydrolysis rates of 1a and 1b called similar): ca. 3
CCCCCCCCO[Si](OCCCCCCCC)(OCCCCCCCC)OC(C(=O)OC1CC2(O)C(OC(=O)c3ccccc3)C3C4(OC(C)=O)COC4CC(O)C3(C)C(=O)C(OC(C)=O)C(=C1C)C2(C)C)C(NC(=O)c1ccccc1)c1ccccc1 (centres unmarked) [Compound 1b, 2-O-(tri-n-octylorthosilyl)paclitaxel] | 710 ± 30 | – | – | IC50 ([2]; MDA-MB-231 cells, cell viability measured after 48 h, MTT, read-out: IC50): 35.6 nM
CC(=O)O[C@H]1C(=O)[C@@]2(C)[C@H]([C@H](OC(=O)c3ccccc3)[C@]3(O)C[C@H](OC(=O)[C@H](O[Si](OC(C)C)(OC(C)C)OC(C)C)[C@@H](NC(=O)c4ccccc4)c4ccccc4)C(C)=C1C3(C)C)[C@]1(OC(C)=O)CO[C@@H]1C[C@@H]2O [Compound 1c, 2′-O-(tri-i-propylorthosilyl)paclitaxel] | 69 ± 4 | 24.5 | – | –
CCO[Si](O[C@@H](C(=O)O[C@H]1C[C@@]2(O)[C@@H](OC(=O)c3ccccc3)[C@@H]3[C@]4(OC(C)=O)CO[C@@H]4C[C@H](O)[C@@]3(C)C(=O)[C@H](OC(C)=O)C(=C1C)C2(C)C)[C@@H](NC(=O)c1ccccc1)c1ccccc1)(OC(C)(C)C)OC(C)(C)C [Compound 1d, 2′-O-(di-t-butylethylorthosilyl)paclitaxel] | 1.0 ± 0.1 | 8140 | – | –
CCO[Si](OCC)(OCC)O[C@H]1C[C@H]2OC[C@@]2(OC(C)=O)[C@H]2[C@H](OC(=O)c3ccccc3)[C@]3(O)C[C@H](OC(=O)[C@H](O[Si](OCC)(OCC)OCC)[C@@H](NC(=O)c4ccccc4)c4ccccc4)C(C)=C([C@@H](OC(C)=O)C(=O)[C@]12C)C3(C)C [Compound 2a, 2′,7-Di-O-(triethylorthosilyl)paclitaxel] | 1800 ± 100 | 74.4 | 250 ± 10^a | anticancer efficacy (cell viability) compared with paclitaxel [3]: anticancer efficacy similar to the parent compound
CCCCCCCCO[Si](OCCCCCCCC)(OCCCCCCCC)OC(C(=O)OC1CC2(O)C(OC(=O)c3ccccc3)C3C4(OC(C)=O)COC4CC(O[Si](OCCCCCCCC)(OCCCCCCCC)OCCCCCCCC)C3(C)C(=O)C(OC(C)=O)C(=C1C)C2(C)C)C(NC(=O)c1ccccc1)c1ccccc1 (centres unmarked) [Compound 2b, 2′,7-Di-O-(tri-n-octylorthosilyl)paclitaxel] | 460 ± 10 | – | 41 ± 3^b | –
CCO[Si](OCC)(OCC)O[C@H]1C[C@H]2OC[C@@]2(OC(C)=O)[C@H]2[C@H](OC(=O)c3ccccc3)[C@]3(O)C[C@H](OC(=O)[C@H](O)[C@@H](NC(=O)c4ccccc4)c4ccccc4)C(C)=C([C@@H](OC(C)=O)C(=O)[C@]12C)C3(C)C [Compound 3a, 7-O-(triethylorthosilyl)paclitaxel] | – | 21.4 | 270 ± 10^ | –
CCCCCCCCO[Si](OCCCCCCCC)(OCCCCCCCC)O[C@H]1C[C@H]2OC[C@@]2(OC(C)=O)[C@H]2[C@H](OC(=O)c3ccccc3)[C@]3(O)C[C@H](OC(=O)[C@H](O)[C@@H](NC(=O)c4ccccc4)c4ccccc4)C(C)=C([C@@H](OC(C)=O)C(=O)[C@]12C)C3(C)C [Compound 3b, 7-O-(tri-n-octylorthosilyl)paclitaxel] | – | 540 | 55 ± 3^ | –
CC(=O)O[C@H]1C(=O)[C@@]2(C)[C@H]([C@H](OC(=O)c3ccccc3)[C@]3(O)C[C@H](OC(=O)[C@H](O)[C@@H](NC(=O)c4ccccc4)c4ccccc4)C(C)=C1C3(C)C)[C@]1(OC(C)=O)CO[C@@H]1C[C@@H]2O [PTX, paclitaxel] | – | – | – | IC50 ([2]; Homo sapiens, MDA-MB-231 cells, cell viability measured after 48 h, MTT, read-out: IC50): 23.6 nM; tumor volume ([4]; Day 13, single dose, tumors about 100 mm^3 at injection): 1450±65 mm^3; reaction at the site of injection ([4]; single injection, BALB/c mice): severe tissue irritation and necrosis at the site of injection
